Each block holds one compound with its values, some of them ahead of it.
Key:
Puccinia recondita [1] = test: Example B-7: Curative action against Puccinia recondita (brown rust) on wheat leaf segments; type: in vivo; conditions: 0.02% active ingredient sprayed one day after inoculation, 8 days after inoculation; for inhibition at 0.02 % strength: Puccinia recondita, foliar, read-out: curative fungicidal activity (inhibition)
Description: Curative Action Against Puccinia recondita (Brown Rust) on Wheat Wheat leaf segments were placed on agar in multiwell plates (24-well format) and inoculated with a spore suspension of the fungus. One day after inoculation the leaf segments were sprayed with test solutions (0.02% active ingredient). After appropriate incubation the activity of a compound was assessed 8 days after inoculation as curative fungicidal activity.

Botrvtis cinerea = test: Example B-1: Action against Botrytis cinerea, fungal growth assay; type: cell-based; conditions: 0.002% active ingredient, PDB broth, 24° C., photometric after 3-4 days
Description: (§1) Action against Botrvtis cinerea—fungal growth assay Conidia of the fungus from cryogenic storage was directly mixed into nutrient broth (PDB potato dextrose broth). After placing a (DMSO) solution of the test compounds (0.002% active ingredient) into a microtiter plate (96-well format) the nutrient broth containing the fungal spores was added. The test plates were incubated at 24° C. and the inhibition of growth was measured photometrically after 3-4 days. The activity of a compound was expressed as fungal growth inhibition (0=no growth inhibition, ratings of 80% to 99% mean good to very good inhibition, 100%=complete inhibition).

[2] = system: Mycosphaerella arachidis (Cercospora arachidicola); test: Example B-2: Action against Mycosphaerella arachidis, fungal growth assay; type: cell-based; conditions: 0.002% active ingredient, PDB broth, 24° C., photometric after 6-7 days
Description: as §1, with “Action Against Mycosphaerella arachidis (Early Leaf Spot of Groundnut; Cercospora arachidicola [fanamorph])—Fungal Growth Assay” for “Action against Botrvtis cinerea—fungal growth assay”, “storage were” for “storage was”, “after 6-7” for “after 3-4”

Septoria tritici = test: Example B-3: Action against Septoria tritici, fungal growth assay; type: cell-based; conditions: Zymoseptoria tritici; 0.002% active ingredient; PDB broth, 24° C., photometric after 72 hrs
Description: as §1, with “Action Against Septoria tritici—Fungal Growth Assay” for “Action against Botrvtis cinerea—fungal growth assay”, “storage were” for “storage was”, “was determined” for “was measured”, “after 72 hrs.” for “after 3-4 days.”

[3] = system: Erysiphe graminis f. sp. tritici; test: Example B-5: Action against Erysiphe graminis f. sp. tritici (wheat powdery mildew), wheat leaf segments; type: in vivo; conditions: Blumeria graminis, foliar, 168 h, 0.02% active ingredient, 7 days after inoculation, read-out: preventive fungicidal activity (inhibition)
Description: Action Against Erysiphe graminis f. sp. tritici (Wheat Powdery Mildew) Wheat leaf segments were placed on agar in multiwell plates (24-well format) and sprayed with test solutions (0.02% active ingredient). After drying, the leaf disks were inoculated with a spore suspension of the fungus. After appropriate incubation the activity of a compound was assessed 7 days after inoculation as preventive fungicidal activity.

Puccinia recondita [4] = test: Example B-6: Protective action against Puccinia recondita (brown rust) on wheat leaf segments; type: in vivo; conditions: foliar, 192 h, 0.02% active ingredient, 8 days after inoculation, read-out: preventive fungicidal activity (inhibition)
Description: (§2) Protective Action Against Puccinia recondita (Brown Rust) on Wheat Wheat leaf segments were placed on agar in multiwell plates (24-well format) and sprayed with test solutions (0.02% active ingredient). After drying, the leaf disks were inoculated with a spore suspension of the fungus. After appropriate incubation the activity of a compound was assessed 8 days after inoculation as preventive fungicidal activity.

Pyrenophora teres = test: Example B-8: Action against Pyrenophora teres (net blotch) on barley leaf segments; type: in vivo; conditions: foliar, 96 h, 0.02% active ingredient, 4 days after inoculation, read-out: preventive fungicidal activity (inhibition)
Description: as §2, with “Action” for “Protective Action”, “Pyrenophora teres (Net Blotch)” for “Puccinia recondita (Brown Rust)”, “Barley Barley” for “Wheat Wheat”, “4” for “8”

SMILES: CON(C(=O)c1cn(C)nc1C(F)F)C(CF)c1ccc(Cl)cc1 (centres unmarked) [Compound 1.107]
curative fungicidal activity (inhibition) (Puccinia recondita [1]): 50%

melting point: 136 to 138 °C
SMILES: CON(C(=O)c1cn(C)nc1C(F)F)C(C)c1cccc(I)c1 (centres unmarked) [Compound 1.014, 3-Difluoromethyl-1-methyl-1H-pyrazole-4-carboxylic acid [1-(3-iodo-phenyl)-ethyl]-methoxy-amide]
inhibition at 0.002 % strength (Botrvtis cinerea): ≥ 80%
inhibition at 0.002 % strength [2]: ≥ 80%
inhibition at 0.002 % strength (Septoria tritici): ≥ 80%
inhibition at 0.02 % strength [3]: ≥ 80%
inhibition at 0.02 % strength (Puccinia recondita [4]): ≥ 80%
inhibition at 0.02 % strength (Puccinia recondita [1]): ≥ 80%
inhibition at 0.02 % strength (Pyrenophora teres): ≥ 80%

SMILES: CON(Cc1ccc(Cl)cc1Cl)C(=O)c1cn(C)nc1C(F)F [Compound 1.091, 3-difluoromethyl-1-methyl-1H-pyrazole-4-carboxylic acid (2,4-dichlorobenzyl)-methoxy-amide]
inhibition at 0.002 % strength [2]: ≥ 80%
inhibition at 0.002 % strength (Septoria tritici): ≥ 80%
inhibition at 0.02 % strength (Puccinia recondita [4]): ≥ 80%
inhibition at 0.02 % strength (Puccinia recondita [1]): 50%
inhibition at 0.02 % strength (Pyrenophora teres): ≥ 80%

melting point: 162 to 164 °C
SMILES: CON(C(=O)c1cn(C)nc1C(F)F)C(C)c1cccc(-c2ccc(Cl)c(Cl)c2)c1 (centres unmarked) [Compound 1.020, 3-difluoromethyl-1-methyl-1H-pyrazole-4-carboxylic acid [1-(3′,4′-dichloro-biphenyl-3-yl)-ethyl]-methoxy-amide]
inhibition at 0.002 % strength (Botrvtis cinerea): ≥ 80%
inhibition at 0.002 % strength [2]: ≥ 80%
inhibition at 0.002 % strength (Septoria tritici): ≥ 80%
inhibition at 0.02 % strength (Puccinia recondita [4]): ≥ 80%
inhibition at 0.02 % strength (Pyrenophora teres): ≥ 80%

melting point: 72 to 74 °C
SMILES: CON(C(=O)c1cn(C)nc1C(F)F)C(C)c1ccc(I)cc1 (centres unmarked) [Compound 1.003, 3-difluoromethyl-1-methyl-1H-pyrazole-4-carboxylic acid [1-(4-iodo-phenyl)-ethyl]-methoxy-amide]
inhibition at 0.002 % strength [2]: ≥ 80%
inhibition at 0.002 % strength (Septoria tritici): ≥ 80%
inhibition at 0.02 % strength [3]: ≥ 80%
inhibition at 0.02 % strength (Puccinia recondita [4]): ≥ 80%
inhibition at 0.02 % strength (Pyrenophora teres): ≥ 80%

Reference: patent publication US8357634B2, “N-alkoxycarboxamides and their use as microbiocides” (Syngenta Crop Protection LLC, priority 2009, dated 2013)
